Experimental data reported in patent publication US10590153B2, “Process for producing crystalline DTPMP” (Zschimmer & Schwarz Mohsdorf GmbH & Co. KG, priority 2014, dated 2020).

Legend:
Format in all cases: physicochemical
[1] = Determination of the hygroscopicity (gravimetric water absorption in desiccator at constant humidity); details: 22±2° C., relative humidity of 55%; for Relative water absorption: determined daily over 12 days
Experimental: In order to determine the hygroscopicity, solid samples were stored in 25 ml glass beakers in a desiccator under constant humidity. […] The water absorption of the samples was determined gravimetrically once daily over a period of 12 days as the difference in mass (see FIG. 14).
Two spray-dried powders were tested as comparison with crystallisate samples of the crystallisates of the α, β and γ crystal modification.
A DTPMP synthesis product having the quality parameters from Table 4 used as the starting slurry for the crystallisation was spray dried with a Büchi-Mini Spray Dryer B-290.

[2] = Bulk density of the samples used for the hygroscopicity test
[3] = Drying behaviour of crystallisates in dependence on residual moisture and product purity (tempering in sealed vials, visual points classification); design: key: 5 points=sample unchanged; 4 points=sample compacted/started to dissolve; 3 points=sample visibly started to dissolve; 2 points=sample cloudy highly viscous solution; 1 point=sample dissolved to clear solution; details: sealed vial, shaken
Experimental: This dependency is shown by the following example for determining the drying behaviour of crystallisates in dependence on residual moisture and product purity.
A DTPMP solid isolated by recrystallisation is characterised by residues of adhering mother liquor via the quality parameters listed in the following table. Determination of the residual moisture content by means of a halogen dryer HB 43 S/Mettler Toledo is carried out isothermally at the indicated temperature using the shutoff criterion 4 (AK4=mean weight loss is <1 mg per 90 seconds):
After a purification step, which consists in suspending the solid in water and then separating it off by means of a filtering centrifuge, the following quality criteria are obtained:
The adhering residual moisture is removed stepwise from these solid samples in a rotary evaporator at 40° C. and 5 mbar vacuum, so that a series of samples with decreasing residual moisture content is prepared from each of the two purity grades (unwashed and washed).
4 ml borosilicate vials are filled with this sample material and the filling level is adjusted to ⅔ of the height of the glass by gentle tapping. In order to minimise evaporative losses, the screw cap of each vial is additionally sealed with a polyethylene film. All the samples are shaken in parallel in a tempering block on a heating and cooling shaker ThermoTwister comfort/Quantifoil Instruments GmbH for a defined period at a defined temperature and then assessed visually. Classification is made according to the following points system: […]

[4] = Temperature 35 °C, test duration 24 h
[5] = Temperature 80 °C, test duration 5 h
[6] = Temperature 85 °C, test duration 5 h
[7] = Temperature 90 °C, test duration 5 h
[8] = Temperature 40 °C, test duration 24 h
[9] = Temperature 45 °C, test duration 24 h
[10] = Temperature 50 °C, test duration 24 h
[11] = Temperature 55 °C, test duration 24 h
[12] = Temperature 60 °C, test duration 24 h
[13] = Temperature 65 °C, test duration 5 h
[14] = Temperature 70 °C, test duration 5 h
[15] = Temperature 75 °C, test duration 5 h

Compound | Hygroscopicity / water absorption capacity (in words) [1] | Relative water absorption [1] [% by mass/day] | Hygroscopicity / water absorption capacity (in words) ([1]; listed as crystal modification γ) | Bulk density [2] [g/mL] | Hygroscopicity / water absorption capacity (in words) ([1]; listed as Spray-dried powders of the unpurified DTPMP synthesis product) | Visual classification at the end of the tempering step (points system) [3, 4] | Visual classification at the end of the tempering step (points system) [3, 5] | Visual classification at the end of the tempering step (points system) [3, 6] | Visual classification at the end of the tempering step (points system) [3, 7] | Visual classification at the end of the tempering step (points system) [3, 8] | Visual classification at the end of the tempering step (points system) [3, 9] | Visual classification at the end of the tempering step (points system) [3, 10] | Visual classification at the end of the tempering step (points system) [3, 11] | Visual classification at the end of the tempering step (points system) [3, 12] | Visual classification at the end of the tempering step (points system) [3, 13] | Visual classification at the end of the tempering step (points system) [3, 14] | Visual classification at the end of the tempering step (points system) [3, 15] | Hygroscopicity / water absorption capacity (in words) ([1]; listed as DTPMP quality purified by recrystallisation and spray dried)
O=P(O)(O)CN(CCN(CP(=O)(O)O)CP(=O)(O)O)CCN(CP(=O)(O)O)CP(=O)(O)O [Crystal form γ, purified quality, diethylenetriamine penta(methylenephosphonic acid)] | by far the lowest hygroscopicity | 0.003 | consistently low water absorption | 0.59 |  |  |  |  |  |  |  |  |  |  |  |  |  | 
O=P(O)(O)CN(CCN(CP(=O)(O)O)CP(=O)(O)O)CCN(CP(=O)(O)O)CP(=O)(O)O [amorphous powder from spray drying of a DTPMP acid purified ] [reference compound] |  | 0.29 |  | 0.27 |  |  |  |  |  |  |  |  |  |  |  |  |  | lower water absorption capacity than the unpurified crude product
O=P(O)(O)CN(CCN(CP(=O)(O)O)CP(=O)(O)O)CCN(CP(=O)(O)O)CP(=O)(O)O [amorphous powder from spray drying of an unpurified DTPMP sy] [reference compound] |  | 0.40 |  | 0.27 | greatest hygroscopicity |  |  |  |  |  |  |  |  |  |  |  |  | 
O=P(O)(O)CN(CCN(CP(=O)(O)O)CP(=O)(O)O)CCN(CP(=O)(O)O)CP(=O)(O)O [washed quality 53 [% by mass] residual moisture] |  |  |  |  |  | 5 | 1 | 1 | 1 |  |  |  |  |  |  |  |  | 
O=P(O)(O)CN(CCN(CP(=O)(O)O)CP(=O)(O)O)CCN(CP(=O)(O)O)CP(=O)(O)O [unwashed quality 19 [% by mass] residual moisture] |  |  |  |  |  | 5 | 2 | 2 | 2 | 5 | 5 | 5 | 5 | 4 | 2 | 2 | 2 | 

Second part, led by results:

Hygroscopicity / water absorption capacity (in words) [1] | Relative water absorption [1] [% by mass/day] | Hygroscopicity / water absorption capacity (in words) ([1]; listed as crystal modification γ) | Bulk density [2] [g/mL] | Hygroscopicity / water absorption capacity (in words) ([1]; listed as Spray-dried powders of the unpurified DTPMP synthesis product) | Visual classification at the end of the tempering step (points system) [3, 4] | Visual classification at the end of the tempering step (points system) [3, 5] | Visual classification at the end of the tempering step (points system) [3, 6] | Visual classification at the end of the tempering step (points system) [3, 7] | Visual classification at the end of the tempering step (points system) [3, 8] | Visual classification at the end of the tempering step (points system) [3, 9] | Visual classification at the end of the tempering step (points system) [3, 10] | Visual classification at the end of the tempering step (points system) [3, 11] | Visual classification at the end of the tempering step (points system) [3, 12] | Visual classification at the end of the tempering step (points system) [3, 13] | Visual classification at the end of the tempering step (points system) [3, 14] | Visual classification at the end of the tempering step (points system) [3, 15] | Compound | Hygroscopicity / water absorption capacity (in words) ([1]; listed as DTPMP quality purified by recrystallisation and spray dried)
 |  |  |  |  | 5 | 1 | 1 | 1 | 5 | 5 | 4 | 4 | 3 | 2 | 1 | 1 | O=P(O)(O)CN(CCN(CP(=O)(O)O)CP(=O)(O)O)CCN(CP(=O)(O)O)CP(=O)(O)O [unwashed quality 24 [% by mass] residual moisture] | 
 |  |  |  |  | 5 | 1 | 1 | 1 | 5 | 5 | 5 | 5 | 3 | 1 | 1 | 1 | O=P(O)(O)CN(CCN(CP(=O)(O)O)CP(=O)(O)O)CCN(CP(=O)(O)O)CP(=O)(O)O [unwashed quality 40 [% by mass] residual moisture] | 
